Test results taken from patent US20070224167A1, “Novel HCV inhibitor combinations and methods” (priority 2006, published 2007).

Tests used:
HCV 1b BB7 replicon = assay: Intracellular antiviral activity in HCV replicon, genotype 1b; type: cell-based, HCV genotype 1b; settings: for EC50: Hepatitis C virus, 72 h, read-out: HCV RNA EC50
Experimental: HCV genotype 1b, BB7 replicon-containing cell line is derived from a human hepatoma cell line (Huh7). A genotype 1a (H77 isolate; GenBank Accession #AF009606) is derived from replicon-containing cell line (Huh7-1a). The cell lines are cultured at 37° C. and 5% CO2 in Dulbecco's Modified Eagle Media (D-MEM; Invitrogen #11965-084) containing 10% fetal bovine serum (FBS; HyClone #SH300070) supplemented with 1% penicillin/streptomycin (Invitrogen #15140-122), 1% non-essential amino acids (Invitrogen #11140-050), 0.66 mM HEPES buffer, pH 7.55 (Invitrogen #15630-080), and 1 mg/mL G418 (Geneticin®, Invitrogen #11811-031 or #10131-027). Genotype 1a and genotype 1b replicon-containing cell lines contain approximately 1000 and 2000 RNA genome equivalents per cell, respectively, when maintained in a subconfluent monolayer in the presence of 1 mg/mL G418. For compound testing, G418 is eliminated and the FBS concentration is reduced to 2%.
At the end of the incubation period, the replicon-containing cells are lysed in 150 μL of lysis buffer provided in the RNeasy 96 Kit (Qiagen #74181). Total cellular RNA is extracted according to the manufacturer's protocol and eluted in 150 μL of nuclease-free water. […] For duplexed RT-PCR quantifying both HCV RNA and 18S rRNA, 0.08 μM rRNA forward primer, 0.1 μM rRNA reverse primer, and 0.2 μM rRNA probe are added (ABI #4308329). […]
The amounts of the HCV and 18S ribosomal RNAs in each sample are estimated by comparing the Ct cycles with those in the corresponding standard curves. […] The total RNA that is used for preparing the standard curve of the rRNA is quantified by O.D.260 measurement. Compound dose response is measured in a 10-point, 3-fold serial dilution series performed in triplicates and subjected to the same corresponding RT-PCR conditions as described above. […] The amounts of HCV are expressed as HCV RNA copies and μg total RNA using rRNA as the surrogate marker for the quantification. […]

[1] = test system: HCV replicon cells (Huh-7 cells); assay: Inhibition of replicon RNA levels (3-day assay, Taqman); type: cell-based; settings: Hepatitis C virus
Experimental: Replicon cells are seeded at ˜5000 cells/well in 96-well collagen I-coated Biocoat plates (Becton Dickinson). Twenty-four hrs post-seeding, inhibitors diluted in DMSO are added to replicon cells (Huh-7 cells). The final concentrations of DMSO and fetal bovine serum are 1% and 10%, respectively. SCH 503034 is serially diluted at 1:2 for a 10-point titration. To each concentration of the SCH 503034, the second inhibitor, HCV-796 or rhIFN-α2b control is titrated in. IFN-α is serially diluted at 1:3, whereas HCV RNA polymerase inhibitor, HCV-796, is serially diluted at 1:2. […] All samples are tested in triplicate. Media and inhibitors are refreshed daily for 3 days at which point the cells are washed with PBS and lysed in 1× cell lysis buffer (Ambion cat #8721). The replicon RNA level is measured using real time PCR (Taqman assay) The amplicon is located in 5B. The PCR primers are: 5B.2F, […] (SEQ ID NO:1) and 5B.2R, […] (SEQ ID NO:2). The probe sequence is FAM-labeled […] (SEQ ID NO:3). GAPDH RNA is used as an endogenous control and is amplified in the same reaction as NS5B (multiplex PCR) using primers and VIC-labeled probe recommended by the manufacturer (PE Applied Biosystem). The real-time RT-PCR reactions are run on an AB1 PRISM 7900HT Sequence Detection System using the following program: 48° C. for 30 min, 95° C. for 10 min, 40 cycles of 95° C. for 15 sec, […] for 1 min. […]

SMILES | EC50 (HCV 1b BB7 replicon) [nM] | IC90 [1] [nM] | Difference in EC50, changing media daily vs. single dose in 3 days (HCV 1b BB7 replicon; replicon, 3 days)
CNC(=O)c1c(-c2ccc(F)cc2)oc2cc(N(CCO)S(C)(=O)=O)c(C3CC3)cc12 [HCV-796, 5-cyclopropyl-2-(4-fluoro-phenyl)-6-[(2-hydroxy-ethyl)-methanesulfonyl-amino]-benzofuran-3-carboxylic acid methylamide] | 1.1 ± 0.2 | 30 | –
CC(C)(C)NC(=O)N[C@H](C(=O)N1C[C@H]2[C@@H]([C@H]1C(=O)NC(CC1CCC1)C(=O)C(N)=O)C2(C)C)C(C)(C)C (stereo partly drawn) [SCH 503034, (1R,5S)—N-[3-amino-1-(cyclobutylmethyl)-2,3-dioxopropyl]-3-[2(S)-[[[(1,1-dimethylethyl)amino]carbonyl]amino]-3,3-dimethyl-1-oxobutyl]-6,6-dimethyl-3-azabicyclo[3.1.0]hexan-2(S)-carboxamide] | 268 ± 29 | 400 | No difference in EC50
